Results as given in patent publication US7371749B2, “Benzothiazole derivatives” (Hoffmann-La Roche Inc., priority 2004, dated 2008).

Key:
[1] = target: T1, human adenosine A2A receptor (Homo sapiens, UniProt P29274); assay: [3H]-SCH-58261 binding assay on human adenosine A2A receptor expressed in CHO cell membranes (SPA); conditions: displacement of [3H]-SCH-58261 (1 nM); recombinant receptor in CHO membranes; Ki by Cheng-Prussoff equation; read-out: hA2 (pKi) (converted)
T1 construct: expressed in transfected cells; host or cells: CHO cells, semliki forest virus expression system; membrane preparation
T1 sequence (P29274 whole entry): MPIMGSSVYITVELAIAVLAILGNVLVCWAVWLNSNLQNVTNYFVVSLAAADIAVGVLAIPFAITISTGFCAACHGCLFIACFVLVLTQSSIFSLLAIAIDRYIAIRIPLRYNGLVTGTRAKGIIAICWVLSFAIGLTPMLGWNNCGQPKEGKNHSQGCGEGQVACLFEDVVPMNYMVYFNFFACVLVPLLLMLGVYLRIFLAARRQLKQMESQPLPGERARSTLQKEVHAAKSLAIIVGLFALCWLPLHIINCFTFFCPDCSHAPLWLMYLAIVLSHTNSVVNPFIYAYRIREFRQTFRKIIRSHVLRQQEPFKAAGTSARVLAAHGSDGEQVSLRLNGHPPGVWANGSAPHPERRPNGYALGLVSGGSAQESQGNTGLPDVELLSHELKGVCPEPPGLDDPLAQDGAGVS
Protocol: Human Adenosine A2A Receptor
The human adenosine A2A receptor was recombinantly expressed in Chinese hamster ovary (CHO) cells using the semliki forest virus expression system. Cells were harvested, washed twice by centrifugation, homogenized and again washed by centrifugation. The final washed membrane pellet was suspended in a Tris (50 mM) buffer containing 120 mM NaCl, 5 mM KCl, 2 mM CaCl2 and 10 mM MgCl2 (pH 7.4) (buffer A). The [^3H]-SCH-58261 (Dionisotti et al., 1997, Br J Pharmacol 121, 353; 1 nM) binding assay was carried out in 96-well plates in the presence of 2.5 μg of membrane protein, 0.5 mg of Ysi-poly-1-lysine SPA beads and 0.1 U adenosine deaminase in a final volume of 200 μl of buffer A. Non-specific binding was defined using xanthine amine congener (XAC; 2 μM). Compounds were tested at 10 concentrations from 10 μM-0.3 nM. All assays were conducted in duplicate and repeated at least two times. Assay plates were incubated for 1 hour at room temperature before centrifugation and then bound ligand determined using a Packard Topcount scintillation counter. IC50 values were calculated using a non-linear curve fitting program and Ki values calculated using the Cheng-Prussoff equation.

| Ki [1] | melting point | SMILES |
| --- | --- | --- |
| 0.501 nM | 242 to 245 °C | COCc1ncc(C(=O)Nc2nc3c(OC)ccc(N4CCOCC4)c3s2)n1C [Example 9, 2-Methoxymethyl-3-methyl-3H-imidazole-4-carboxylic acid (4-methoxy-7-morpholin-4-yl-benzothiazol-2-yl)-amide] |
| 0.794 nM | 203 to 205 °C | COc1ccc(N2CCOCC2)c2sc(NC(=O)c3cnn(CCN(C)C)c3)nc12 [Example 6, 1-(2-Dimethylamino-ethyl)-1H-pyrazole-4-carboxylic acid (4-methoxy-7-morpholin-4-yl-benzothiazol-2-yl)-amide] |
| 0.631 nM | 244 to 246 °C | COc1ccc(N2CCOCC2)c2sc(NC(=O)c3cnc(CN4CCOCC4)n3C)nc12 [Example 3, 3-Methyl-2-morpholin-4-ylmethyl-3H-imidazole-4-carboxylic acid (4-methoxy-7-morpholin-4-yl-benzothiazol-2-yl)-amide] |
| 1 nM | 204 to 207 °C | COc1ccc(N2CCOCC2)c2sc(NC(=O)c3cnn(CCN4CCOCC4)c3)nc12 [Example 7, 1-(2-Morpholin-4-yl-ethyl)-1H-pyrazole-4-carboxylic acid (4-methoxy-7-morpholin-4-yl-benzothiazol-2-yl)-amide] |
| 0.398 nM |  | COCCn1cc(C(=O)Nc2nc3c(OC)ccc(N4CCOCC4)c3s2)cn1 [Example 8, 1-(2-Methoxy-ethyl)-1H-pyrazole-4-carboxylic acid (4-methoxy-7-morpholin-4-yl-benzothiazol-2-yl)-amide] |

Second part, the compound before the results:

| SMILES | Ki [1] | melting point |
| --- | --- | --- |
| COc1ccc(N2CCOCC2)c2sc(NC(=O)c3cnc(CN(C)C)n3C)nc12 [Example 2, 2-Dimethylaminomethyl-3-methyl-3H-imidazole-4-carboxylic acid (4-methoxy-7-morpholin-4-yl-benzothiazol-2-yl)-amide] | 0.631 nM | 229 to 231 °C |
| COCCN(C)Cc1ncc(C(=O)Nc2nc3c(OC)ccc(N4CCOCC4)c3s2)n1C [Example 1, 2-{[(2-Methoxy-ethyl)-methyl-amino]-methyl}-3-methyl-3H-imidazole-4-carboxylic acid (4-methoxy-7-morpholin-4-yl-benzothiazol-2-yl)-amide] | 0.501 nM | 176 to 178 °C |
| COc1ccc(N2CCOCC2)c2sc(NC(=O)c3cnn(CCN4CCCC4)c3)nc12 [Example 5, 1-(2-Pyrrolidin-1-yl-ethyl)-1H-pyrazole-4-carboxylic acid (4-methoxy-7-morpholin-4-yl-benzothiazol-2-yl)-amide] | 0.794 nM | 190 to 192 °C |
| COc1ccc(N2CCOCC2)c2sc(NC(=O)c3cnc(CN4CCCC4)n3C)nc12 [Example 4, 3-Methyl-2-pyrrolidin-1-ylmethyl-3H-imidazole-4-carboxylic acid (4-methoxy-7-morpholin-4-yl-benzothiazol-2-yl)-amide] | 1.58 nM | 255 °C |
